Experimental findings from US20110160440A1, “Cab Molecules” (GENENCOR INTERNATIONAL, INC., priority 2003, published 2011) are described below.

Data set [1] in a line: Treatment-related toxicity (weight loss, animal deaths) in LS174T SCID mouse study. Format: in vivo, CB17-SCID mice. The settings on record: for weight loss: melphalan 10 mg/kg. The text has this: (§1) Female CB17-SCID mice (8-10 weeks, Taconic Labs) were challenged subcutaneously (SC) with 2×10^6 LS174T cells suspended in serum free DMEM in a volume of 100 microliters (Medimmune ACUC protocol # ACF 037). When mean tumor volumes were approximately 100-150 mm^3, animals were randomly distributed into treatment groups. Animals without detectable tumors or excessively large tumors (volume >300 mm^3) were excluded.
Tumor-bearing animals received CAB1.2 in PBS intravenously (IV) at doses of 1 or 2.5 mg/kg in an injection volume of 100 microliters in PBS. C-Mel stored at −70° C. as a 100 mg/ml frozen solution in DMSO) was formulated fresh (15 mg/ml, in a 5:4 ratio of 0.1M Na bicarbonate:PBS) and administered at a dose of 150 mg/kg on an average weight basis, IV bolus, via the tail vein in an injection volume of 200 microliters to all treatment groups receiving prodrug. Melphalan was formulated fresh (2 mg/ml in 20% DMSO/PBS) and administered intraperitoneally in an injection volume of 100 microliters. Briefly, animals administered CAB1.2 at 2.5 mg/kg were administered C-Mel 18 or 36 hours after CAB1.2 treatment. Animals administered CAB1.2 at 1 mg/kg were administered C-Mel 24 hours after CAB1.2 treatment. Control groups were as follows: untreated, 2.5 mg/kg CAB1.2 alone, 10 mg/kg melphalan, C-Mel alone, 2.5 mg/kg P97ADEPT followed by C-Mel 18 hours later, 1.5 mg/kg Beta-lactamase (BLA, 1.5 mg/kg, which was equimolar to the 2.5 mg/kg CAB1.2 BLA concentrations used), followed by C-Mel 18 hours later. Treatments were repeated once weekly for 3 cycles. Tumor measurements (in millimeters) were taken twice weekly; the investigator measuring the tumors was blinded to the treatment groups.
(§2) Animals were monitored daily for general appearance, animal weights taken once weekly and tumor measurements taken twice weekly. Data was collected and mean tumor volumes for all treatment groups determined±SEM, and plotted for analysis (days post tumor challenge vs tumor volume).
The average weights of individual treatment groups taken on day 9, when the first dose of C-Mel was administered, was used as the baseline weight of tumor-bearing animals for weight loss determinations within each treatment group. […] One animal was lost at day 14 due to procedural error during treatment. Toxicity-related deaths were noted as follows: 2 animals found dead on day 27, 3 animals each found dead on days 30 and 34, for a total of 8/9 toxicity-related deaths on the study for the 18 hr CAB1.2/C-Mel treatment group. […] One animal was sacrificed on day 12 due to excessive necrosis at the tumor site. […]

The test system of data set [2] is LS174T human colorectal tumor. The data set is described as follows: Anti-tumor activity of CAB1.2 plus C-Mel in LS174T human colorectal model in SCID mice. Format: in vivo, CB17-SCID mice.
Description: as §1
Tumor-bearing animals received CAB1.2 in PBS intravenously (IV) at doses of 1 or 2.5 mg/kg in an injection volume of 100 microliters in PBS. C-Mel stored at −70° C. as a 100 mg/ml frozen solution in DMSO) was formulated fresh (15 mg/ml, in a 5:4 ratio of 0.1M Na bicarbonate:PBS) and administered at a dose of 150 mg/kg on an average weight basis, IV bolus, via the tail vein in an injection volume of 200 microliters to all treatment groups receiving prodrug. Melphalan was formulated fresh (2 mg/ml in 20% DMSO/PBS) and administered intraperitoneally in an injection volume of 100 microliters. Briefly, animals administered CAB1.2 at 2.5 mg/kg were administered C-Mel 18 or 36 hours after CAB1.2 treatment. […]
as §2

Consider `N[C@@H](Cc1ccc(N(CCCl)CCCl)cc1)C(=O)O` [Melphalan], for which the weight loss is 11% in data set [1] (day 16) and 12.5% in data set [1] (day 24). For the same compound, the “toxicity-related deaths on the study” value in data set [1] (melphalan alone 10 mg/kg) is 3/10. The animal deaths in data set [1] (melphalan at maximum tolerated dose (MTD)) was determined as 30%. Moreover, the “inhibition vs untreated control” value in data set [2] (day 34, melphalan 10 mg/kg intraperitoneally (MTD), once weekly 3 cycles) was 34%. Moreover, in data set [2] (melphalan 10 mg/kg treatment group), the tumor regressions entry is given as “no tumor regressions occurred”.
